Assay results from patent US20220167618A1, “PESTICIDALLY ACTIVE AZOLE-AMIDE COMPOUNDS” (SYNGENTA CROP PROTECTION AG, priority 2019, published 2022).

How the values were obtained:
Format in all cases: in vivo
[1] = system: Plutella xylostella (Diamond Back Moth); experiment: Example B5: Plutella xylostella (diamond back moth), artificial diet, 24-well; details: 192 h, application rate 200 ppm, eggs, 8 days after infestation, read-out: control in at least one of the two categories (mortality or growth inhibition)
Protocol: Example B5: Plutella xylostella (Diamond Back Moth)
24-well microtiter plates with artificial diet were treated with aqueous test solutions prepared from 10′000 ppm DMSO stock solutions by pipetting. After drying, Plutella eggs were pipetted through a plastic stencil onto a gel blotting paper and the plate was closed with it. The samples were assessed for mortality and growth inhibition in comparison to untreated samples 8 days after infestation.

[2] = system: Diabrotica balteata (Corn Root Worm); experiment: Example B1: Diabrotica balteata (corn root worm), sprayed maize sprouts; details: 96 h, application rate 200 ppm, L2 larvae, 4 days after infestation, read-out: control in at least one of the two categories (mortality or growth inhibition)
Protocol: Example B1: Diabrotica balteata (Corn Root Worm)
Maize sprouts placed onto an agar layer in 24-well microtiter plates were treated with aqueous test solutions prepared from 10′000 ppm DMSO stock solutions by spraying. After drying, the plates were infested with L2 larvae (6 to 10 per well). The samples were assessed for mortality and growth inhibition in comparison to untreated samples 4 days after infestation.

[3] = system: Spodoptera littoralis (Egyptian Cotton Leaf Worm); experiment: Example B9: Spodoptera littoralis (Egyptian cotton leaf worm), sprayed cotton leaf discs; details: foliar, 72 h, application rate 200 ppm, L1 larvae, 3 days after infestation, read-out: control in at least one of the three categories (mortality, anto-feedant or growth inhibition)
[4] = system: Chilo suppressalis (Striped Rice Stemborer); experiment: Example B4: Chilo suppressalis (striped rice stemborer), artificial diet; details: 144 h, application rate 200 ppm, L2 larvae, 6 days after infestation, read-out: control in at least one of the three categories (mortality, anti-feedant or growth inhibition)
Protocol: Example B4: Chilo suppressalis (Striped Rice Stemborer)
24-well microtiter plates with artificial diet were treated with aqueous test solutions prepared from 10′000 ppm DMSO stock solutions by pipetting. After drying, the plates were infested with L2 larvae (6-8 per well). The samples were assessed for mortality, anti-feeding effect, and growth inhibition in comparison to untreated samples 6 days after infestation. Control of Chilo suppressalis by a test sample is given when at least one of the categories mortality, anti-feedant effect, and growth inhibition is higher than the untreated sample.

CC(NC(=O)c1cc(C(F)(F)F)nc(C2(C#N)CC2)c1)c1nc(Br)nn1-c1ccc(C#N)cn1 (stereo not drawn) [Compound P2, N-[1-[5-bromo-2-(5-cyano-2-pyridyl)-1,2,4-triazol-3-yl]ethyl]-2-(1-cyanocyclopropyl)-6-(trifluoromethyl)pyridine-4-carboxamide]
≥ 80%: percent control (mortality or growth inhibition) at 200 ppm [1] | percent control (mortality or growth inhibition) at 200 ppm [2] | percent control (mortality, anti-feedant or growth inhibition) at 200 ppm [3] | percent control (mortality, anti-feedant or growth inhibition) at 200 ppm [4]

CC(NC(=O)c1cc(C(F)(F)F)cc(C2(C#N)CC2)c1)c1nc(Br)nn1-c1ncc(OCC(F)F)cn1 (stereo not drawn) [Compound P3, N-[1-[5-bromo-2-[5-(2,2-difluoroethoxy)pyrimidin-2-yl]-1,2,4-triazol-3-yl]ethyl]-3-(1-cyanocyclopropyl)-5-(trifluoromethyl)benzamide]
≥ 80%: percent control (mortality or growth inhibition) at 200 ppm [1] | percent control (mortality or growth inhibition) at 200 ppm [2] | percent control (mortality, anti-feedant or growth inhibition) at 200 ppm [3] | percent control (mortality, anti-feedant or growth inhibition) at 200 ppm [4]

CC(NC(=O)c1cc(C(F)(F)F)cc(C(F)(F)C2CC2)c1)c1nc(Br)nn1-c1ncc(OCC(F)(F)F)cn1 (stereo not drawn) [Compound P9, N-[1-[5-bromo-2-[5-(2,2,2-trifluoroethoxy)pyrimidin-2-yl]-1,2,4-triazol-3-yl]ethyl]-3-[cyclopropyl(difluoro)methyl]-5-(trifluoromethyl)benzamide]
≥ 80%: percent control (mortality or growth inhibition) at 200 ppm [1] | percent control (mortality, anti-feedant or growth inhibition) at 200 ppm [3] | percent control (mortality, anti-feedant or growth inhibition) at 200 ppm [4]

CC(NC(=O)c1cc(C(F)(F)F)cc(C2(C#N)CC2)c1)c1nc(Br)nn1-c1ncc(OCC(F)(F)F)cn1 (stereo not drawn) [Compound P10, N-[1-[5-bromo-2-[5-(2,2,2-trifluoroethoxy)pyrimidin-2-yl]-1,2,4-triazol-3-yl]ethyl]-3-(1-cyanocyclopropyl)-5-(trifluoromethyl)benzamide]
≥ 80%: percent control (mortality or growth inhibition) at 200 ppm [1] | percent control (mortality or growth inhibition) at 200 ppm [2] | percent control (mortality, anti-feedant or growth inhibition) at 200 ppm [3] | percent control (mortality, anti-feedant or growth inhibition) at 200 ppm [4]

CC(NC(=O)c1cc(C2CC2C(F)(F)F)cc(C(F)(F)F)c1)c1nc(Br)nn1-c1ncc(OCC(F)F)cn1 (stereo not drawn) [Compound P13, N-[1-[5-bromo-2-[5-(2,2-difluoroethoxy)pyrimidin-2-yl]-1,2,4-triazol-3-yl]ethyl]-3-(trifluoromethyl)-5-[2-(trifluoromethyl)cyclopropyl]benzamide]
≥ 80%: percent control (mortality or growth inhibition) at 200 ppm [1] | percent control (mortality or growth inhibition) at 200 ppm [2] | percent control (mortality, anti-feedant or growth inhibition) at 200 ppm [3] | percent control (mortality, anti-feedant or growth inhibition) at 200 ppm [4]

CC(NC(=O)c1cc(C(F)(F)F)cc(C(F)(F)C2CC2)c1)c1nc(Br)nn1-c1ncc(OCC(F)F)cn1 (stereo not drawn) [Compound P15, N-[1-[5-bromo-2-[5-(2,2-difluoroethoxy)pyrimidin-2-yl]-1,2,4-triazol-3-yl]ethyl]-3-[cyclopropyl(difluoro)methyl]-5-(trifluoromethyl)benzamide]
≥ 80%: percent control (mortality or growth inhibition) at 200 ppm [1] | percent control (mortality or growth inhibition) at 200 ppm [2] | percent control (mortality, anti-feedant or growth inhibition) at 200 ppm [3] | percent control (mortality, anti-feedant or growth inhibition) at 200 ppm [4]

CC(NC(=O)c1cc(C2CC2C(F)(F)F)cc(C(F)(F)F)c1)c1nc(Br)nn1-c1ccc(C#N)cn1 (stereo not drawn) [Compound P16, N-[1-[5-bromo-2-(5-cyano-2-pyridyl)-1,2,4-triazol-3-yl]ethyl]-3-(trifluoromethyl)-5-[2-(trifluoromethyl)cyclopropyl]benzamide]
≥ 80%: percent control (mortality or growth inhibition) at 200 ppm [1] | percent control (mortality or growth inhibition) at 200 ppm [2] | percent control (mortality, anti-feedant or growth inhibition) at 200 ppm [3] | percent control (mortality, anti-feedant or growth inhibition) at 200 ppm [4]

CC(NC(=O)c1cc(C(F)(F)F)cc(S(=O)(=O)C(F)(F)F)c1)c1nc(Br)nn1-c1ccc(C#N)cn1 (stereo not drawn) [Compound P17, N-[1-[5-bromo-2-(5-cyano-2-pyridyl)-1,2,4-triazol-3-yl]ethyl]-3-(trifluoromethyl)-5-(trifluoromethylsulfonyl)benzamide]
≥ 80%: percent control (mortality or growth inhibition) at 200 ppm [1] | percent control (mortality or growth inhibition) at 200 ppm [2] | percent control (mortality, anti-feedant or growth inhibition) at 200 ppm [3] | percent control (mortality, anti-feedant or growth inhibition) at 200 ppm [4]

CC(NC(=O)c1cc(C2CC2)cc(C(F)(F)F)c1)c1nc(Br)nn1-c1ccc(C#N)cn1 (stereo not drawn) [Compound P19, N-[1-[5-bromo-2-(5-cyano-2-pyridyl)-1,2,4-triazol-3-yl]ethyl]-3-cyclopropyl-5-(trifluoromethyl)benzamide]
≥ 80%: percent control (mortality or growth inhibition) at 200 ppm [1] | percent control (mortality or growth inhibition) at 200 ppm [2] | percent control (mortality, anti-feedant or growth inhibition) at 200 ppm [3] | percent control (mortality, anti-feedant or growth inhibition) at 200 ppm [4]

CC(NC(=O)c1cc(C2CC2)nc(C(F)(F)F)c1)c1nc(Br)nn1-c1ccc(C#N)cn1 (stereo not drawn) [Compound P20, N-[1-[5-bromo-2-(5-cyano-2-pyridyl)-1,2,4-triazol-3-yl]ethyl]-2-cyclopropyl-6-(trifluoromethyl)pyridine-4-carboxamide]
≥ 80%: percent control (mortality or growth inhibition) at 200 ppm [1] | percent control (mortality or growth inhibition) at 200 ppm [2] | percent control (mortality, anti-feedant or growth inhibition) at 200 ppm [3] | percent control (mortality, anti-feedant or growth inhibition) at 200 ppm [4]

CC(NC(=O)c1cc(C(F)(F)F)cc(C(F)(F)C2CC2)c1)c1nc(Br)nn1-c1ccc(C#N)cn1 (stereo not drawn) [Compound P21, N-[1-[5-bromo-2-(5-cyano-2-pyridyl)-1,2,4-triazol-3-yl]ethyl]-3-[cyclopropyl(difluoro)methyl]-5-(trifluoromethyl)benzamide]
≥ 80%: percent control (mortality or growth inhibition) at 200 ppm [1] | percent control (mortality or growth inhibition) at 200 ppm [2] | percent control (mortality, anti-feedant or growth inhibition) at 200 ppm [3] | percent control (mortality, anti-feedant or growth inhibition) at 200 ppm [4]

CC(NC(=O)c1cc(C(F)(F)F)cc(C2(C#N)CC2)c1)c1nc(Br)nn1-c1ccc(OCC(F)(F)F)cn1 (stereo not drawn) [Compound P23, N-[1-[5-bromo-2-[5-(2,2,2-trifluoroethoxy)-2-pyridyl]-1,2,4-triazol-3-yl]ethyl]-3-(1-cyanocyclopropyl)-5-(trifluoromethyl)benzamide]
≥ 80%: percent control (mortality or growth inhibition) at 200 ppm [1] | percent control (mortality, anti-feedant or growth inhibition) at 200 ppm [3] | percent control (mortality, anti-feedant or growth inhibition) at 200 ppm [4]

CC(NC(=O)c1cc(C2CC2)cc(C(F)(F)F)c1)c1nc(Br)nn1-c1ccc(OC(F)F)cn1 (stereo not drawn) [Compound P25, N-[1-[5-bromo-2-[5-(difluoromethoxy)-2-pyridyl]-1,2,4-triazol-3-yl]ethyl]-3-cyclopropyl-5-(trifluoromethyl)benzamide]
≥ 80%: percent control (mortality or growth inhibition) at 200 ppm [1] | percent control (mortality or growth inhibition) at 200 ppm [2] | percent control (mortality, anti-feedant or growth inhibition) at 200 ppm [3] | percent control (mortality, anti-feedant or growth inhibition) at 200 ppm [4]

CC(NC(=O)c1cc(C2CC2)cc(C(F)(F)F)c1)c1nc(Br)nn1-c1ccc(OCC(F)(F)F)cn1 (stereo not drawn) [Compound P28, N-[1-[5-bromo-2-[5-(2,2,2-trifluoroethoxy)-2-pyridyl]-1,2,4-triazol-3-yl]ethyl]-3-cyclopropyl-5-(trifluoromethyl)benzamide]
≥ 80%: percent control (mortality or growth inhibition) at 200 ppm [1] | percent control (mortality, anti-feedant or growth inhibition) at 200 ppm [4]

CC(NC(=O)c1cc(C2CC2(F)F)cc(C(F)(F)F)c1)c1nc(Br)nn1-c1ccc(OCC(F)(F)F)cn1 (stereo not drawn) [Compound P29, N-[1-[5-bromo-2-[5-(2,2,2-trifluoroethoxy)-2-pyridyl]-1,2,4-triazol-3-yl]ethyl]-3-(2,2-difluorocyclopropyl)-5-(trifluoromethyl)benzamide]
≥ 80%: percent control (mortality or growth inhibition) at 200 ppm [1] | percent control (mortality, anti-feedant or growth inhibition) at 200 ppm [4]

CC(NC(=O)c1cc(C(F)(F)F)cc(C(C)(C)C#N)c1)c1nc(Br)nn1-c1ncc(OCC(F)F)cn1 (stereo not drawn) [Compound P38, N-[1-[5-bromo-2-[5-(2,2-difluoroethoxy)pyrimidin-2-yl]-1,2,4-triazol-3-yl]ethyl]-3-(1-cyano-1-methyl-ethyl)-5-(trifluoromethyl)benzamide]
≥ 80%: percent control (mortality or growth inhibition) at 200 ppm [1] | percent control (mortality or growth inhibition) at 200 ppm [2] | percent control (mortality, anti-feedant or growth inhibition) at 200 ppm [3] | percent control (mortality, anti-feedant or growth inhibition) at 200 ppm [4]

CC(NC(=O)c1cc(C(F)(F)F)cc(C(C)(C)C#N)c1)c1nc(Br)nn1-c1ccc(OCC(F)(F)F)cn1 (stereo not drawn) [Compound P41, N-[1-[5-bromo-2-[5-(2,2,2-trifluoroethoxy)-2-pyridyl]-1,2,4-triazol-3-yl]ethyl]-3-(1-cyano-1-methyl-ethyl)-5-(trifluoromethyl)benzamide]
≥ 80%: percent control (mortality or growth inhibition) at 200 ppm [1] | percent control (mortality, anti-feedant or growth inhibition) at 200 ppm [4]
